The source of these data is paper PMC4838876, “Multivalent display of minimal Clostridium difficile glycan epitopes mimics antigenic properties of larger glycans” (Nature Communications, 2016).

This assay relates to mAbs 2C5, 10A1 and 10D6. Kind of assay: Glycan microarray binding of purified mAbs. Set-up: species or system mouse. The settings on record: purified mAbs on microarray, 10 μg ml^−1. The text has this: Three hybridoma clones termed 2C5, 10A1 and 10D6 produced IgG exclusively binding to 1. […] The three mAbs were of the IgG1 subtype (Fig. 4b). Microarrays with PS-I oligosaccharide substructures were used to determine their binding specificities (Fig. 4c). […] No binding to oligoglucoses 5 and 6, or unrelated glycans 7 or 8 was seen (Fig. 4c,d). Based on these findings, we concluded that the requirements for anti-PS-I antibody binding were a terminal rhamnose that is 1→3 linked to a glucose, as present in glycans 1–3.
Figure 4 Characterization and epitope recognition patterns of anti-PS-I mAbs. (a) SDS–PAGE analysis of the purified mAbs showing bands corresponding to heavy and light IgG chains. (b) Isotyping analysis of the three mAbs. […] (d) Glycan microarray-inferred binding signals to selected PS-I antigens (1–4) expressed as background-subtracted mean fluorescence intensities (MFIs) are shown. […]
Microarray slides were blocked with 1% BSA in PBS (w/v) for 1 h at RT, washed three times with PBS and dried by centrifugation (300 g, 5 min). […] Slides were incubated with fluorescence-labelled secondary antibodies diluted 1:400 in 1% BSA in PBS (w/v) in a humid chamber for 1 h at RT, washed three times with 0.1% Tween-20 in PBS (v/v), rinsed once with deionized water and dried by centrifugation (300 g, 5 min) before scanning with a GenePix 4300A microarray scanner (Molecular Devices). […]

With `C[C@@H]1O[C@@H](O[C@@H]2[C@@H](O)[C@H](O[C@H]3[C@H](O[C@@H]4O[C@@H](C)[C@H](O)[C@@H](O)[C@H]4O)[C@@H](O)[C@@H](O[C@H]4[C@@H](OCCCCCN)O[C@H](CO)[C@@H](O)[C@@H]4O)O[C@@H]3CO)O[C@H](CO)[C@H]2O)[C@H](O)[C@H](O)[C@H]1O` [Compound 1], the “Glycan microarray binding signal (in words)” value is given as “Highest binding signals”.

In the case of `C[C@@H]1O[C@@H](O[C@@H]2[C@@H](O)[C@H](OCCCCCN)O[C@H](CO)[C@H]2O)[C@H](O)[C@H](O)[C@H]1O` [Compound 3, Rha-(1→3)-Glc], the “Glycan microarray binding signal (in words)” value is listed as “weaker signals”.
